“Also recorded” adds a separate entry of the source.
Experiments:
[1] = system: BALB/c mice; experiment: Immunostaining of intraneuronal Aβ accumulation in mouse brain; assay type: in vivo; conditions: mice treated i.c.v. with Aβ plus peptide
Protocol: Brain specimens were prepared from the mice of Example 13 according to the same method as in Example 6. Sections were immunostained with primary antibodies, anti-Aβ antibody (Biosource, USA) plus an antibody to a marker of neurons, anti-neuron specific enolase (NSE) antibody (Axxora, Swiss) or anti-neuron specific nuclear protein (NeuN) antibody (Chemicon, USA), and with secondary antibodies, anti-mouse-FITC antibody (goat anti-mouse IgG conjugated to FITC (Santa Cruz Biotechnology, USA), anti-mouse-TRITC antibody (goat anti-mouse IgG conjugated to TRITC (Santa Cruz Biotechnology, USA), and anti-rabbit-goat-anti-mouse IgG conjugated to horseradish peroxidase (Santa Cruz Biotechnology, USA)).

[2] = system: BALB/c mice; experiment: Memory test (Y-maze, passive avoidance) after i.c.v. Aβ; assay type: in vivo, mouse; conditions: i.c.v. injection of Aβ 410 pmole plus peptide, tests after one day
Protocol: Tg2576 mice were not used in this test because it takes a lot of time to breed the animals, and they are expensive. Instead, normal mice were used in this memory test because the same AD symptoms as in Tg2576 mice were observed when Aβ was injected into the brains of normal mice. Normal BALB/c mice were injected intracerebroventricularly (i.c.v.) with Aβ (1.855 μg/5 μl, 410 pmole) alone or in combination with a specific peptide. After one day, a Y-maze test and a passive avoidance test were performed. Memory was assessed as described in Yan et al., Br. J. Pharmacol, 133:89-96, 2001.

[3] = molecular target: T1, FcγRIIb-CD40 chimera (UniProt P25942+Q63203); experiment: FcγRIIb-CD40 chimera NF-κB luciferase assay of Aβ binding; assay type: cell-based, rat; conditions: Aβ 5 μM
T1 construct: an extracellular domain of FcγRIIb was genetically fused to CD40, consisting of a transmembrane domain and a cytoplasmic domain; human CD40 transmembrane and cytoplasmic domains (fusion partner); expressed in transfected cells; host or cells: NIH3T3
T1 sequence (Q63203+P25942 with tags, fused parts or gaps): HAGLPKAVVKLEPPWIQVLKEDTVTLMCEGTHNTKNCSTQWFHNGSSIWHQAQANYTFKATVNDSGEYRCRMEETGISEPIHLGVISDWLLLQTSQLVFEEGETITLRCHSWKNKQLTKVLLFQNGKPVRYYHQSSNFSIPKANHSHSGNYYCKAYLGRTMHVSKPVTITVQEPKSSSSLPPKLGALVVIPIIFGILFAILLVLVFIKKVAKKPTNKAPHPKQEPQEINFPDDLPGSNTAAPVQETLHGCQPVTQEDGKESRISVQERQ
Source text: In order to investigate whether FcγRIIb binds to Aβ in a specific manner, an extracellular domain of FcγRIIb was genetically fused to CD40, consisting of a transmembrane domain and a cytoplasmic domain. The resulting FcγRIIb-CD40 fusion gene was expressed in NIH3T3 cells to increase NF-κ B activity, a signal transducer of CD40, when the fusion protein binds to Aβ. The chimeric gene was constructed as follows. A rat FcγRIIb extracellular region and human CD40 transmembrane and cytoplasmic domains were amplified by performing PCR with FcγRIIb-ED-5′-NheI primer (5′-[…]-3′: SEQ ID No. 15), FcγRIIb-ED-3′-HindIII primer (5′-[…]3′: SEQ ID No. 16), CD40-TM+cyto-5′ primer (5′-[…]-3′: SEQ ID No. 17), and CD40-TM+cyto-3′ primer (5′-[…]-3′: SEQ ID No. 18). PCR products were inserted into a pEGFP-N1 vector according to the same method as in Example 3. Cells were transfected with the chimeric gene, CD40, TNFRI, pcDNA3 (mock) along with an NF-kB-luciferase gene, and were exposed to 5 μM of Aβ or 20 ng/ml of TNF. NF-κ B activity was assessed, as described in Woo et al., FEBS Lett. 578, 239-244, 2004.
Based on the results of Example 10, a sequence spanning from the first to ninth residues from the N-terminus of Aβ, and a 95 to 101 sequence and a 107 to 114 sequence of mouse FcγRIIb, which are Aβ docking sites, were synthesized. Also, peptides, in which a residue involved in Aβ-cγRIIb binding in the above sequences was replaced with alanine, were synthesized. The peptides (wild type and mutant) have the sequences represented by SEQ ID Nos. 19 to 28 (panel a, FIG. 10). The synthesized peptides were individually allowed to react with a mixture of FcγRIIb-CD40 and Aβ (5 μM) or PBS. Then, luciferase activity was measured.

[4] = system: primary-cultured neuronal cells; experiment: Cell survival of Aβ-exposed primary neuronal culture treated with FcγRIIb ED; assay type: cell-based, rat; conditions: 5 μM Aβ 48 hrs, 100 μg FcγRIIb ED, compared to BSA
Protocol: (§1) An FcγRIIb extracellular domain (ED) was purified as described in Sondermann et al., EMBO J, 18:1095-1103, 1999. Neuronal B103 cells or primary-cultured neuronal cells were exposed to 5 μM of Aβ for 48 hrs. Then, cells were treated or not treated with 100 μg of the purified FcγRIIb ED, or treated or not treated with 100 μg of bovine serum albumin (BSA). B103 cells were subjected to Western blotting, which was performed with anti-FcγRIIb antibody as described in Example 2-2. The primary neuronal culture was evaluated for cell survival as described in Example 3.

[5] = system: FcγRIIb; experiment: Western blot of FcγRIIb expression in Aβ-exposed B103 cells treated with FcγRIIb ED; assay type: cell-based, rat; conditions: 5 μM Aβ 48 hrs; 100 μg FcγRIIb ED
Protocol: as §1

[6] = molecular target: T2, Aβ1-42 (Homo sapiens, UniProt P05067); experiment: In vitro binding assay (immunoprecipitation, Western blot); conditions: 5 μM Aβ, 20 μg FcγRIIb-ED, 37° C. 3 hrs
T2 construct: subjected to Western blotting to assess the association between FcγRII and Aβ1-42; purchased Sigma
T2 sequence (P05067 672-713): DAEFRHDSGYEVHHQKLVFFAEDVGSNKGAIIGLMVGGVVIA
Protocol: 5 μM of Aβ was mixed with 20 μg of FcγRIIb-ED or 20 μg of BSA in vitro, and was incubated at 37° C. for 3 hrs. The reaction mixture was incubated with anti-FcγRIIb polyclonal antibody or anti-GST antibody for 2 hrs, and then with Protein G for 3 hrs (binding solution: 50 mM Tris-HCl, pH 7.4, 1 mM DTT, 0.5 mM EDTA, 0.01% Triton X-100, 0.5 mg/ml bovine serum albumin, 10% (v/v) glycerol, protease inhibitors cocktail, several concentrations of NP-40). The beads were washed three times and subjected to Western blotting to assess the association between FcγRII and Aβ1-42. Western blotting was carried out with K9.361 antibody and anti-Aβ antibody (primary antibody: 71-5800 (Zymed, USA); secondary antibody: goat anti-rabbit IgG conjugated to horseradish peroxidase (Santa Cruz Biotechnology, USA).

[7] = system: B103 cells; experiment: Viability of siRNA-transfected B103 cells exposed to Aβ; assay type: cell-based, rat; conditions: 5 μM Aβ, 48 hrs
Source text: Small interfering RNAs (siRNAs) inhibiting the expression of FcγIIb and receptors for advanced glycation end-product (RAGE), which is known as a cell surface receptor of Aβ, were constructed, and their effects on cell death were compared to each other. A siRNA duplex was formed by hybridizing sense and antisense complementary RNA oligonucleotides, listed in Table 1, below, and was inserted into pSuper-neo (Oligoengine, USA). The siRNA expression vectors thus constructed were individually transfected into B103 cells using lipofectamine (Invitrogen, USA) according to the manufacturer's protocol. The resulting transfected cells were designated “pSuper-neo”, “psiFcγRIIb#1”, “psiFcγRIIb#2”, “psiRAGE#1”, and “psiRAGE#2”. Then, transfected cells were subjected to Western blot analysis. […] Then, the transformed B103 cells were exposed to 5 μM of Aβ or PBS for 48 hrs, and their viability was evaluated. Cell survival was assessed through trypan blue exclusion, Hoechst staining (Sigma, USA), and Annexin V labeling (Promega, USA). The survival of effector cells and cells introduced with pEGFP (Clontech, USA) was determined by observing the morphology of GFP-positive cells under a fluorescence microscope (Leica DMRBE, Germany). Cells were determined to be dead when the cell morphology changed to a spherical shape and the cell membrane was disrupted or destroyed.

[8] = system: B103 cells; experiment: Immunostaining of intracellular Aβ accumulation in siRNA-transfected B103 cells; assay type: cell-based, rat; conditions: 100 nM Aβ, 12 hrs
Protocol: psiFcγRIIb #1 cells or psiRAGE #1 cells, prepared in Example 4, were exposed to 100 nM of Aβ or PBS for 12 hrs, and immunostained with anti-Aβ antibody (4G8; Signet, USA) according to the same method as in Example 2-3.

peptide #7: mutant peptide having an alanine substitution for a residue responsible for Aβ-FcγRIIb binding; among SEQ ID Nos. 19 to 28 (DAEARHASG; Synthetic peptide #7 for interaction inhibitor)
intraneuronal Aβ accumulation in brain [1]: strong intraneuronal Aβ staining | Aβ-induced memory decline [2]: failed to reverse memory decline | NF-κB activation induced through binding of Aβ to FcγRIIb-CD40 (luciferase activity) [3]: sharp decrease in inhibitory effects

peptide #1: synthesized peptide among SEQ ID Nos. 19 to 28; corresponds to a binding region in Aβ or FcγRIIb; probably SEQ ID No. 19 (DAEFRHDSG; Synthetic peptide #1 for interaction inhibitor)
intraneuronal Aβ accumulation in brain ([1]; listed as #1): disappeared; also recorded: completely inhibited | Aβ-induced memory decline ([2]; listed as #1): strongly reduce; also recorded: restore | NF-κB activation induced through binding of Aβ to FcγRIIb-CD40 (luciferase activity) ([3]; listed as #1): strongly inhibited; also recorded: effectively inhibited

FcγRIIb ED: purified FcγRIIb extracellular domain (SEQ ID No. 33), purified as described in Sondermann et al. 1999
Aβ signaling / relative cell viability [4]: completely inhibit | Aβ signaling / relative cell viability ([4]; listed as FcγRIIb extracellular domain): increased to that of cells not exposed to Aβ; also recorded: increase the relative viability of neuronal cells exposed to Aβ to the same level as cells not exposed to Aβ | Aβ-increased expression of FcγRIIb [5]: suppressed | binding of Aβ to FcγRIIb-ED [6]: directly bind

9: synthesized peptide among SEQ ID Nos. 19 to 28; corresponds to a binding region in Aβ or FcγRIIb; probably SEQ ID No. 27 (RCHSWRNK; Synthetic peptide #9 for interaction inhibitor) [compound 9]
Aβ-induced memory decline [2]: strongly reduce; also recorded: restore | NF-κB activation induced through binding of Aβ to FcγRIIb-CD40 (luciferase activity) [3]: strongly inhibited; also recorded: effectively inhibited

B1: siRNA against RAGE: siRNA against RAGE, oligomers SEQ ID Nos. 13 and 14, inserted into pSuper-neo (nucleic acid)
sense: GATCCCCGCTCCGGATGAAGAATCAGTTCAAGAGACTGATTCTTCATCCGGAGCTTTTTGGAAA
antisense: AGCTTTTCCAAAAAGCTCCGGATGAAGAATCAGTCTCTTGAACTGATTCTTCATCCGGAGCGGAGTCGGG
modifications: expressed or natural sequence; the letters are possibly those of the target site
Aβ-induced cell death / survival [7]: low survival | intracellular Aβ accumulation [8]: maintained
